This note sets out measurements from article PMC11541514, “Structural and Solution Speciation Studies on fac-Tricarbonylrhenium(I) Complexes of 2,2′-Bipyridine Analogues” (ACS Omega, 2024).

The subject of data set [1] is Colo205 human colonic adenocarcinoma cell line (doxorubicin-sensitive). In words: MTT cytotoxicity assay on Colo205 cells. The data set is classed as cell-based. How it is done: The cytotoxic activity of selected halido (1–4Cl, and 3Br with chlorido and bromido coligand, respectively) and aqua (1–4Aq) complexes was evaluated in the drug-sensitive Colo205 and its resistant counterpart Colo320 human colonic adenocarcinoma cell lines using the colorimetric 3-(4,5-dimethylthiazol-2-yl)-2,5-diphenyl-tetrazolium bromide (MTT) assay. For comparison, fac-[Re(CO)3(bpy)(Cl)] (in which bpy denotes 2,2′-bipyridine) was also tested, and doxorubicin was used as a positive control. […] The aqua complexes (1–4Aq) were characterized by even higher IC50 values (>100 μM). The somewhat higher cytotoxic activity of the halido complexes might be the result of their kinetic inertness compared to aqua derivatives, based on the previous solution chemical studies. […]
(§1) The tested compounds were dissolved in DMSO or 20% (v/v) DMSO/H2O mixture to prepare 5 mM stock solutions, which were diluted in complete culture medium, to study the effect of compounds on the cell growth of human colonic adenocarcinoma cell lines (doxorubicin-sensitive Colo205 and resistant Colo320 colonic adenocarcinoma cells). […] Cell growth was determined by measuring the optical density (OD) at 540/630 nm with a Multiscan EX ELISA reader (Thermo Labsystems, Cheshire, WA, USA). […]
Background: Formazan colour is commonly taken as a measure of viable cells.

Data set [2] concerns Colo320/MDR-LRP resistant human colonic adenocarcinoma cell line. In words: MTT cytotoxicity assay on Colo320 cells. The data set is classed as cell-based. As to conditions: for IC50: MTT, incubation time 72 h. How it is done:
The cytotoxic activity of selected halido (1–4Cl, and 3Br with chlorido and bromido coligand, respectively) and aqua (1–4Aq) complexes was evaluated in the drug-sensitive Colo205 and its resistant counterpart Colo320 human colonic adenocarcinoma cell lines using the colorimetric 3-(4,5-dimethylthiazol-2-yl)-2,5-diphenyl-tetrazolium bromide (MTT) assay. For comparison, fac-[Re(CO)3(bpy)(Cl)] (in which bpy denotes 2,2′-bipyridine) was also tested, and doxorubicin was used as a positive control. […] The aqua complexes (1–4Aq) were characterized by even higher IC50 values (>100 μM). The somewhat higher cytotoxic activity of the halido complexes might be the result of their kinetic inertness compared to aqua derivatives, based on the previous solution chemical studies.
Doxorubicin-sensitive Colo205 (ATCC-CCL-222) and ABCB1 (MDR1)-LRP-expressing resistant Colo320/MDR-LRP (ATCC-CCL-220.1) human colonic adenocarcinoma cell lines were purchased from LGC Promochem (Teddington, UK). The cells were cultured in RPMI 1640 medium supplemented with 10% heat-inactivated fetal bovine serum, 2 mM L-glutamine, 1 mM Na-pyruvate, and 10 mM 4-(2-hydroxyethyl)-1-piperazineethanesulfonic acid (HEPES, Sigma, Steinheim, Germany). Cell lines were incubated at 37 °C in a 5% CO2, 95% air atmosphere. The semiadherent human colon cancer cells were detached with Trypsin-Versene (EDTA, Sigma, Steinheim, Germany) solution for 5 min at 37 °C.
as §1, with “cells). Doxorubicin (Merck, Darmstadt, Germany) was used as a positive control. The cells were treated with Trypsin-Versene (EDTA) solution.” for “cells).”

A further data set has as its system Vero cells. In words: MTT assay on Vero cells, maximum non-toxic concentration. Type of data set: cell-based, African green monkey. The following applies: incubation 24 h. The protocol: Selected compounds (1–4Aq, 1–4Cl, and 3Br) and the reference complex fac-[Re(CO)3(bpy)(Cl)] were tested for their antiviral activity against Herpes simplex virus 2 (HSV-2), which is a double-stranded DNA virus that infects mammals, including humans.[29] The antiviral activity of complexes against HSV-2 was investigated by using Vero cells (originally isolated from kidney epithelial cells of an African green monkey) to host the growing viruses.
Vero cells (ATCC) were placed into the 96-well plate (Sarstedt, Nümbrecht, Germany) at a density of 4 × 10^6 cells/plate. The cells at a density of 4 × 10^4 cells per well were in 100 μL of minimal essential medium (MEM) (Sigma; USA) with Earle salts supplemented with 25 μg/mL gentamicin, 10% heat-inactivated fetal bovine serum (FBS) (Gibco; Germany), 8 mM HEPES, 2 mM L-glutamine, 1× nonessential amino acids, and 1 μg/mL fungisone. The cells were incubated for 60 min at room temperature (RT) to avoid the edge effect and then for 24 h at 37 °C, 5% CO2 that secure a 90% confluent cell layer.[44]
MTT assay was used to determine the maximum non-toxic concentration of the complexes on Vero cells. […] Next day the absorbance of the wells was determined by a microtiter plate reader (Labsystems Multiskan Ex 355, Thermo Fisher Scientific, Waltham, MA USA). The absorbance of the formazan product was measured at 540 nm.[45]

What is called IC50 is the concentration at which inhibition is half-maximal. Higher therefore signals weaker potency.

Turning to `[C-]#[O+].[C-]#[O+].[C-]#[O+].[Cl][Re-2]1[n+]2ccccc2-c2cccc[n+]21` [fac-[Re(CO)3(bpy)(Cl)], reference compound], the IC50 in data set [1] (incubation time 72 h) is 25.2 ± 1.1 µM; in data set [2], 49.1 ± 1.7 µM. For the same molecule, the “RF (resistance factor = IC50(Colo320)/IC50(Colo205))” value in data set [2] (72 h) was 1.95. The same molecule returned a maximum nontoxic concentration in the data set with Vero cells of 25 µM.
On to `COc1cccc2c1C(=O)c1c(O)c3c(c(O)c1C2=O)C[C@@](O)(C(=O)CO)C[C@@H]3O[C@H]1C[C@H](N)[C@H](O)[C@H](C)O1` [doxorubicin, reference compound], for which the half-inhibitory concentration (IC50) in data set [1] (Homo sapiens, COLO 205, incubation time 72 h) was found to be 0.58 ± 0.06 µM; in data set [2] (Homo sapiens, COLO 320) it was 3.13 ± 0.29 µM.
